The values below come from patent US20180177219A1, “FAST-DISSOLVING CO-CRYSTALLINE LACTOSE” (NESTEC S.A., priority 2015, published 2018).

Assay type in all cases: physicochemical
Data set [1] is described as follows: Dissolution of an individual crystal filmed under a microscope, no agitation. The following applies: room temperature; for time to complete dissolution of an individual crystal: crystals comparable in size and morphology. The protocol: The dissolution of the individual crystals was filmed under a microscope using a high-resolution camera and film-stills of the progressing dissolution were analyzed (area of remaining solid material) until complete dissolution was achieved.
Dissolution kinetics were measured over a time period of 0 to 36 seconds.
The dissolution kinetics of an individual α-lactose.CaCl2.7 H2O co-crystal (▪) in comparison to α-lactose monohydrate (▴) in water were determined. Dissolution kinetics were measured over a time period of 0 to 36 seconds at room temperature without stirring.

The nature of data set [2]: Dissolution kinetics by online refractometry (normalized refractive index), stirred. The following applies: particle size 60-90 μm; for amount of solid dissolved in water within 20 seconds: 60 ml, stirring 500 rpm, ambient temperature (20° C.). Here is the method: Dissolution kinetics were measured by online-refractometry in water over a time period of 0 to 100 seconds while stirring at 500 rpm at ambient temperature (20° C.).
The dissolution kinetics of 2 g of lactose.CaCl2.7 H2O co-crystals in water (♦) in comparison to 1.24 g of pure lactose monohydrate in water (▪), 1.24 g of lactose monohydrate in 0.52 g calcium chloride solution (▴) and a physical mixture of 1.24 g of lactose monohydrate and 0.52 g of calcium chloride dihydrate in water (X) were measured by refractometry at room temperature over a time period of 0 to 100 seconds while stirring the solution.

Data set [3] can be described thus: Dynamic vapor sorption (moisture tolerance). The following applies: 25° C., 120 hours, relative humidity augmented stepwise. Here is the method: The physical mixture contains the same molar quantities of lactose and calcium chloride as compared to the co-crystalline material. The straight (horizontal) line corresponds to an uptake of five equivalents of water. dm: mass gain in percent; RH: relative humidity in percent.
Dynamic vapor sorption experiments were performed for lactose.calcium salt co-crystals in comparison to a physical mixture of lactose monohydrate and calcium chloride dihydrate. The physical mixture contains the same molar quantities of lactose and calcium chloride as compared to the co-crystalline material.
Measurements were conducted over 120 hours at a temperature of 25° C. and relative humidity was augmented stepwise until the samples fully liquefied.

As for `O.OC[C@H]1O[C@@H](O[C@H]2[C@H](O)[C@@H](O)C(O)O[C@@H]2CO)[C@H](O)[C@@H](O)[C@H]1O` (stereo partly drawn) [lactose monohydrate, reference compound], in data set [1] (individual crystal, liquid phase not agitated), the “time for complete dissolution relative to lactose.CaCl2.7 H2O co-crystal (times as long)” value is reported as “roughly seven”. For the same compound, the “time to complete dissolution of an individual crystal” value in data set [1] (water, without stirring) was “about 36 seconds”. The “amount of solid dissolved in calcium chloride solution within 20 seconds” value in data set [2] (1.24 g in 0.52 g calcium chloride solution, stirring, room temperature) is given as “about 30%”. Moreover, in data set [2], the “amount of solid dissolved in water within 20 seconds” value is listed as “about 20%”.
Consider `O.O.O.O.O.O.O.OC[C@H]1O[C@@H](O[C@H]2[C@H](O)[C@@H](O)C(O)O[C@@H]2CO)[C@H](O)[C@@H](O)[C@H]1O.[Ca+2].[Cl-].[Cl-]` (stereo partly drawn) [lactose.CaCl2.7 H2O co-crystals, lactose.calcium chloride.7 H2O], for which the “dissolution speed relative to lactose monohydrate (times faster)” value in data set [1] (individual crystal, water, without stirring) fell in the range of 14 to 15 times. Moreover, the “time to complete dissolution of an individual crystal” value in data set [1] (water, without stirring) is “about 2.5 seconds”. Further, the “amount of solid dissolved in water within 20 seconds” value in data set [2] was “about 85%”. In data set [3], the moisture absorption behaviour result is reported as “gradually continued to absorb moisture in parallel with augmentation of relative humidity”; the “moisture tolerance compared to physical mixture of lactose monohydrate and calcium chloride dihydrate” value is recorded as “improved moisture tolerance”.
